# Biological target: T1, KDM4EJmjC (M1–Q337) (Homo sapiens, UniProt B2RXH2)
# T1 construct: We chose human KDM4EJmjC (M1–Q337); made in house
# T1 sequence (B2RXH2 1-337): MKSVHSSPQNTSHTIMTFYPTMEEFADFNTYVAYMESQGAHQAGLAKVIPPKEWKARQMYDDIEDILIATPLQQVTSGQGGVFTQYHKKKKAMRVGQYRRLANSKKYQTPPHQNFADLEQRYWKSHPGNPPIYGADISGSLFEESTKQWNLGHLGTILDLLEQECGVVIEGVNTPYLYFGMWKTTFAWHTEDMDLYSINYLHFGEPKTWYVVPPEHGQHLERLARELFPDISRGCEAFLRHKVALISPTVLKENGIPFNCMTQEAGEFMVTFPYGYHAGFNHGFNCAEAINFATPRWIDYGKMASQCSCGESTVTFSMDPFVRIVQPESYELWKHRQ
# Assay: NMR demethylation assay (1H, 31P), KDM4EJmjC
# Format: biochemical
# Conditions: KDM4EJmjC 50 µM
# Description: Incubations of H3_1-15KP9me3 with KDM4EJmjC were performed in Eppendorf tubes (1.5 mL). Conditions used for ^1H and ^31P NMR time-courses: H3_1-15KP9me3 (250 µM) was incubated with KDM4EJmjC (50 µM), sodium ascorbate (1.00 mM), 2OG (500 µM), and Fe(NH4)2(SO4)2 (100 µM) in HEPES-d18 buffer (50 mM, pH 7.5) in D2O ( > 95% ^2H). Reactions (160 µL total volume) were quenched by addition of HCl (1 M, 10 equivalents) after the indicated time. The samples were centrifuged (1 min, 14,500 rpm) and the supernatant transferred to an NMR tube (3 mm, Norell). For characterisation of the products from the incubation of H3_1-15KP9me3 with KDM4EJmjC the following conditions were used: Peptide H3_1-15KP9me3 (500 µM) was incubated with sodium ascorbate (1.00 mM) 2-oxoglutarate (1.00 mM), Fe(NH4)2(SO4)2 (100 µM), and KDM4EJmjC (50.0 µM), in HEPES-d18 buffer (50 mM, pH 7.5) in D2O (>95% ^2H) for 1 hour. Reactions were quenched by addition of HCl (1 M, 10 equivalents), or by heating (95 °C, 10 min). Precipitated proteins were removed by centrifugation (1 min, 14,500 rpm) and the supernatant transferred to an NMR tube (3 mm, Norell). Spectra were measured using a Bruker 600 MHz machine and analysed using MestReNova 14.1 (MestReLabs, Spain; www.mestrelab.com) and Topspin 3.6.1 (Bruker, Germany; www.bruker.com). […]
substance,measurement,setting,value
"ARTKQTAR(KPme3)STGGKA [H3KP9me3, histone H3 residues 1–15 with trimethylphosphonium lysine analogue at position 9]",demethylation,"1H and 31P NMR, H3KP9me3 250 or 500 µM, HEPES-d18 pH 7.5 in D2O",the reaction proceeded to give signals corresponding to H3KP9me2 and H3KP9me2O
same,demethylation with 2OG turnover to succinate,"NMR time-course, H3KP9me3 250 µM",confirmed demethylation and conversion of 2OG to succinate
